Experimental data: ChEMBL document CHEMBL3351595, “Cyclic acyl guanidines bearing carbamate moieties allow potent and dirigible cholinesterase inhibition of either acetyl- or butyrylcholinesterase” (Bioorg Med Chem, 2014)
Activity calls are given as the source filed them. The rule behind the calls is not given here.

Tests used:
[1] = molecular target: Cholinesterase (Equus caballus) (UniProt P81908); assay: Inhibition of equine serum BChE at 50 uM using ATC iodide substrate by DTNB based assay
[2] = Selectivity index, ratio of IC50 for electric eel AChE to IC50 for quine serum BChE
[3] = molecular target: Acetylcholinesterase (Electrophorus electricus) (UniProt O42275); assay: Inhibition of electric eel AChE at 50 uM using ATC iodide substrate by DTNB based assay
Sequence of Acetylcholinesterase (Electrophorus electricus) (O42275 24-633 limits assumed): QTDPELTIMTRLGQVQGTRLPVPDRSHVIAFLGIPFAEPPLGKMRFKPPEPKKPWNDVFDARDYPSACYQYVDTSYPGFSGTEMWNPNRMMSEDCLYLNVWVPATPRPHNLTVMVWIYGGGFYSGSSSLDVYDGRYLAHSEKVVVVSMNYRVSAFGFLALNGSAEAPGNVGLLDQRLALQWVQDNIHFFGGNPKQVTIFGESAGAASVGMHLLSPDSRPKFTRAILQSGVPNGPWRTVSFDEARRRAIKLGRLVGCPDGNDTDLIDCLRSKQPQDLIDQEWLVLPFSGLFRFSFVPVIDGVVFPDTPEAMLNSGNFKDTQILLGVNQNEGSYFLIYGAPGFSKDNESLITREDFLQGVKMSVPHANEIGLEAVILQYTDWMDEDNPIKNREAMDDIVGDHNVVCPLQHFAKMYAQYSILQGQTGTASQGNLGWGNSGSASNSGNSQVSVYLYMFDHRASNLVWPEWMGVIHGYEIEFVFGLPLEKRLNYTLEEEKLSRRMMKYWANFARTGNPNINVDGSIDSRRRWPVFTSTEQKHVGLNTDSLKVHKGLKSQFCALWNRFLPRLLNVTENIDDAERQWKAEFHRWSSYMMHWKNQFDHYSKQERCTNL

Cholinesterase = Cholinesterase (Equus caballus, UniProt P81908); assay: Inhibition of equine serum BChE using ATC iodide substrate by DTNB based assay
Sequence of Cholinesterase (P81908 whole entry): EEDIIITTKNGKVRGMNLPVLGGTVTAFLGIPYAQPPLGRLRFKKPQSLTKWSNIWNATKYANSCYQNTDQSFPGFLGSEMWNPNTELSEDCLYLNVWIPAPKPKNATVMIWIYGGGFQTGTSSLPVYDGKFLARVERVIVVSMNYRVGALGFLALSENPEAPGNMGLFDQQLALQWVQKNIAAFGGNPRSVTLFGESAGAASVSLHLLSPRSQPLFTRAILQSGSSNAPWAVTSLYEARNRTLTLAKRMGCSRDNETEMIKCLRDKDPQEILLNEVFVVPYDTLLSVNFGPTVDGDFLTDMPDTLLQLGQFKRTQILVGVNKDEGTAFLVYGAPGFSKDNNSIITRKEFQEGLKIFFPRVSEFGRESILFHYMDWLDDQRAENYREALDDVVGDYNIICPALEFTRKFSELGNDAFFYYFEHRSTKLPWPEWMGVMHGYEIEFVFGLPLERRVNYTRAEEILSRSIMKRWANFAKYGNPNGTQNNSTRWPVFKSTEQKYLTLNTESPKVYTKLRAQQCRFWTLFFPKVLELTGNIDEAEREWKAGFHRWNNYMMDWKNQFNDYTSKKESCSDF

[4] = molecular target: Acetylcholinesterase (Electrophorus electricus) (UniProt O42275); assay: Inhibition of electric eel AChE assessed as stability constant of inhibitor-enzyme complex pre-incubated for 2 to 20 mins by enzyme kinetic assay
HT-22 [5] = assay: Toxicity against mouse HT22 cells assessed as reduction in cell viability at 1 to 25 uM by MTT assay; assay type: cell-based; settings: ht-22, 25 µM
[6] = molecular target: Acetylcholinesterase (Electrophorus electricus) (UniProt O42275); assay: Inhibition of electric eel AChE assessed as rate constant of carbamoyl-enzyme formation pre-incubated for 2 to 20 mins by enzyme kinetic assay
[7] = molecular target: Cholinesterase (Equus caballus) (UniProt P81908); assay: Time dependent inhibition of equine serum BChE at 25 to 250 nM; settings: TDE = time-dependent effect
HT-22 [8] = assay: Neuroprotective activity in mouse HT22 cells assessed as reduction in glutamate-induced cytotoxicity at 1 to 25 uM by MTT assay; assay type: functional, cell-based
[9] = molecular target: Cholinesterase (Equus caballus) (UniProt P81908); assay: Inhibition of equine serum BChE assessed as rate constant of carbamoyl-enzyme formation pre-incubated for 80 mins by enzyme kinetic assay
[10] = molecular target: Acetylcholinesterase (Homo sapiens) (UniProt P22303); assay: Inhibition of human erythrocyte AChE pre-incubated for 2 mins by enzyme kinetic assay
Sequence of Acetylcholinesterase (Homo sapiens) (P22303 whole entry): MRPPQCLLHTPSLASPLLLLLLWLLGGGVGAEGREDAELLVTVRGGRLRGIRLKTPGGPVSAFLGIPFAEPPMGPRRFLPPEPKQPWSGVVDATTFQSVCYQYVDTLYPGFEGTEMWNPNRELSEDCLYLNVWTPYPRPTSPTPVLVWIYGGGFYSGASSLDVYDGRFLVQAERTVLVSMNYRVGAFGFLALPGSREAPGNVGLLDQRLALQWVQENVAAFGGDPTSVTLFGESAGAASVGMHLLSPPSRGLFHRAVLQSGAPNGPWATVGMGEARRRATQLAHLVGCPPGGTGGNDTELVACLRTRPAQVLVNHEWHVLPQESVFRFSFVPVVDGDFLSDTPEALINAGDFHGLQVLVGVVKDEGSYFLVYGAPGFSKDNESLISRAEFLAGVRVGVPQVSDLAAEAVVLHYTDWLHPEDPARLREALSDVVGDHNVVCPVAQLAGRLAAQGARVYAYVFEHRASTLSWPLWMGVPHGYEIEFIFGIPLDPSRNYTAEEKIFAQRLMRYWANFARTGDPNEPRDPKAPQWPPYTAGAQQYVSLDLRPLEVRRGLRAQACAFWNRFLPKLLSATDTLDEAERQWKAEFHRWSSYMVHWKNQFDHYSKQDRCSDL

Acetylcholinesterase = Acetylcholinesterase (Electrophorus electricus, UniProt O42275); assay: Inhibition of electric eel AChE using ATC iodide substrate by DTNB based assay
Sequence of Acetylcholinesterase (O42275 whole entry): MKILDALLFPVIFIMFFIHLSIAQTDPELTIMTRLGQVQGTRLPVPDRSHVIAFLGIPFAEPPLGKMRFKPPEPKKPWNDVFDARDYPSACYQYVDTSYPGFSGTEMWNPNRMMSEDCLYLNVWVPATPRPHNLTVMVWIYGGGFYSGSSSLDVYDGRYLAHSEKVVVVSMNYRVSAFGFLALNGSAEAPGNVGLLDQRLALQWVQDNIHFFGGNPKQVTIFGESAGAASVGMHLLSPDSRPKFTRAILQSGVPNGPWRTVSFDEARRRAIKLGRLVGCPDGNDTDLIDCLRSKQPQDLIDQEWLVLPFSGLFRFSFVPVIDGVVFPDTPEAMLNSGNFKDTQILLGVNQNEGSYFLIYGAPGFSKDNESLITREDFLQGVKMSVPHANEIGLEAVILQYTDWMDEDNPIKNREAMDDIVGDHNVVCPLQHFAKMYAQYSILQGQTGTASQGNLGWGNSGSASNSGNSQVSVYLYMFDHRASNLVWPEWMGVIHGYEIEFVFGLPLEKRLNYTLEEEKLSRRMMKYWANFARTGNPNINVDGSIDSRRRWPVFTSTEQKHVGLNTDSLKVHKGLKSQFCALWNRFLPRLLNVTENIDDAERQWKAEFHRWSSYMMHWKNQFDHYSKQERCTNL

[11] = molecular target: Acetylcholinesterase (Homo sapiens) (UniProt P22303); assay: Inhibition of human erythrocyte AChE pre-incubated for 20 mins by enzyme kinetic assay
[12] = molecular target: Acetylcholinesterase (Electrophorus electricus) (UniProt O42275); assay: Inhibition of electric eel AChE at 100 uM using ATC iodide substrate by DTNB based assay
[13] = molecular target: Cholinesterase (Equus caballus) (UniProt P81908); assay: Inhibition of equine serum BChE at 100 uM using ATC iodide substrate by DTNB based assay
HT-22 [14] = assay: Toxicity against mouse HT22 cells assessed as reduction in cell viability at 5 uM by MTT assay; assay type: cell-based; settings: ht-22, 5 µM
HT-22 [15] = assay: Neuroprotective activity in mouse HT22 cells assessed as reduction in glutamate-induced cytotoxicity at 5 to 25 uM by MTT assay; assay type: functional, cell-based
HT-22 [16] = assay: Toxicity against mouse HT22 cells assessed as reduction in cell viability at 25 uM by MTT assay; assay type: cell-based; settings: ht-22, 25 µM
[17] = Antioxidant activity assessed as AAPH-induced peroxyl radicals scavenging activity by measuring Trolox equivalents by oxygen radical absorbance capacity-fluorescein assay; assay type: physicochemical
HT-22 [18] = assay: Neuroprotective activity in mouse HT22 cells assessed as reduction in glutamate-induced cytotoxicity at 10 to 25 uM by MTT assay; assay type: functional, cell-based
HT-22 [19] = assay: Neuroprotective activity in mouse HT22 cells assessed as reduction in glutamate-induced cytotoxicity at 25 uM by MTT assay; assay type: functional, cell-based
[20] = molecular target: Cholinesterase (Equus caballus) (UniProt P81908); assay: Inhibition of equine serum BChE assessed as stability constant of inhibitor-enzyme complex pre-incubated for 2 to 20 mins by enzyme kinetic assay
[21] = molecular target: Cholinesterase (Equus caballus) (UniProt P81908); assay: Inhibition of equine serum BChE assessed as rate constant of carbamoyl-enzyme formation pre-incubated for 2 to 20 mins by enzyme kinetic assay
[22] = molecular target: Cholinesterase (Equus caballus) (UniProt P81908); assay: Time dependent inhibition of equine serum BChE at 5 to 100 nM; settings: TDE = time-dependent effect

Sequence of Cholinesterase (Equus caballus) (P81908 whole entry): as the sequence (P81908 whole entry) above

Structure (SMILES) | Ratio IC50 [2] | IC50 (Cholinesterase; read-out: IC50) [µM] | IC50 (Acetylcholinesterase; read-out: IC50) [µM] | other results
CC(C)c1ccc(NC(=O)Oc2ccc3nc4n(c(=O)c3c2)CCCN4)cc1 | 0.5 |  |  | inhibition [1]: 19%; inhibition [3]: 34%
CC(C)c1ccc(NC(=O)Oc2ccc3c(c2)C(=O)N2CCCN=C2N3C)cc1 | 0.03 | 3.26 | 0.0837 | K [4]: 43.5 nM; Activity (HT-22 [5]): Non-toxic; K [6]: 0.09 min⁻¹; inhibition [7]: tde; Activity (HT-22 [8]): inactive; inhibition [9]: inactive; inhibition [10]: Active; inhibition [11]: inactive
CCCCCCCNC(=O)Oc1ccc2c(c1)C(=O)N1CCCN=C1N2C | 26.1 | 0.14 | 3.64 | 
CN1CCCn2c1nc1ccc(OCc3ccccc3)cc1c2=O | 0.21 | 81.7 | 15.6 | 
CC(C)c1ccc(NC(=O)Oc2ccc3nc4n(c(=O)c3c2)CCCN4C)cc1 | > 5.6 | 17.7 |  | inhibition [12]: 50%
O=C1c2ccccc2NC2=NCCCN12 | 0.3 |  | 29.6 | inhibition [13]: 47%; Activity (HT-22 [8]): inactive; Activity (HT-22 [14]): Toxic
O=c1c2cc(O)ccc2nc2n1CCCN2Cc1ccccc1 |  |  |  | Activity (HT-22 [15]): Active; inhibition [1]: 40%; Activity (HT-22 [5]): Non-toxic; Activity (HT-22 [16]): Toxic; Activity [17]: 1.56 equiv; inhibition [3]: 41%
CN1CCCN2Cc3cc(OCc4ccccc4)ccc3N=C12 | 0.2 | 4.17 | 0.826 | 
CN1C2=NCCCN2C(=O)c2cc(OCc3ccccc3)ccc21 | 0.03 | 21.4 | 0.7 | 
O=c1c2cc(OCc3ccccc3)ccc2nc2n1CCCN2CCCN1CCCCC1 | 1.6 | 0.81 | 1.31 | IC50 (Acetylcholinesterase; read-out: pIC50 (converted)): 1.35 µM
CCCCCCCNC(=O)Oc1ccc2nc3n(c(=O)c2c1)CCCN3C | 3.41 | 1.75 | 5.98 | 
CN1CCCn2c1nc1ccc(O)cc1c2=O |  |  |  | inhibition [1]: 9%; Activity (HT-22 [5]): Non-toxic; Activity (HT-22 [18]): Active; Activity [17]: 1.54 equiv; inhibition [3]: 61%
CC(C)c1ccc(NC(=O)Oc2ccc3nc4n(c(=O)c3c2)CCCN4CCCN2CCCCC2)cc1 | 3.1 | 0.25 | 0.78 | 
CC(C)c1ccc(NC(=O)Oc2ccc3nc4n(c(=O)c3c2)CCCN4Cc2ccccc2)cc1 |  |  |  | inhibition [1]: 6%; inhibition [3]: 30%
CCCCNC(=O)Oc1ccc2nc3n(c(=O)c2c1)CCCN3CCCN1CCCCC1 | 6.35 | 1.1 | 6.91 | 
O=c1c2cc(O)ccc2nc2n1CCCN2 | 0.28 |  | 55.6 | inhibition [13]: 24%; Activity (HT-22 [8]): inactive; Activity (HT-22 [16]): Toxic; IC50 (Acetylcholinesterase; read-out: pIC50 (converted)): 55 µM
CCCCNC(=O)Oc1ccc2nc3n(c(=O)c2c1)CCCN3C | 0.37 | 44.3 | 16.3 | 

Structure (SMILES) | Ratio IC50 [2] | IC50 (Cholinesterase; read-out: IC50) [µM] | IC50 (Acetylcholinesterase; read-out: IC50) [µM] | other results
CCCCNC(=O)Oc1ccc2c(c1)CN1CCCN(C)C1=N2 | 2.31 | 1.34 | 3.13 | IC50 (Cholinesterase; read-out: pIC50 (converted)): 3.89 µM
COc1cccc(NC(=O)Oc2ccc3c(c2)C(=O)N2CCCN=C2N3C)c1 | 0.06 | 52.2 | 2.9 | 
COc1cccc(NC(=O)Oc2ccc3nc4n(c(=O)c3c2)CCCN4Cc2ccccc2)c1 |  |  |  | inhibition [1]: 11%; inhibition [3]: 35%
CN1C2=NCCCN2C(=O)c2cc(O)ccc21 | 0.21 | 55.5 | 11.8 | Activity (HT-22 [5]): Non-toxic; Activity (HT-22 [8]): inactive; Activity (HT-22 [18]): inactive
O=c1c2cc(O)ccc2nc2n1CCCN2CCCN1CCCCC1 | 1 | 22.7 | 22.9 | Activity (HT-22 [18]): inactive
CN1CCCN2Cc3cc(O)ccc3N=C12 | < 0.3 |  | 15.9 | inhibition [1]: 53%; Activity (HT-22 [5]): Non-toxic; Activity (HT-22 [8]): inactive; Activity (HT-22 [18]): inactive; Activity [17]: 1.34 equiv; Activity (HT-22 [19]): Active
CCCCCCCNC(=O)Oc1ccc2c(c1)CN1CCCN(C)C1=N2 | 5.31 | 0.63 | 3.36 | 
CN1C2=NCCCN2C(=O)c2cc(OC(=O)Nc3ccc(C(C)(C)C)cc3)ccc21 | < 0.004 |  | 0.2 | 
CCCCNC(=O)Oc1ccc2nc3n(c(=O)c2c1)CCCN3Cc1ccccc1 |  |  |  | inhibition [1]: 8%; inhibition [3]: 41%
CNC(=O)Oc1ccc2c(c1)[C@]1(C)CCN(C)[C@@H]1N2C |  |  |  | K [4]: 34.3 nM; K [6]: 0.123 min⁻¹; K [20]: 41.1 nM; K [21]: 0.067 min⁻¹
CCCCNC(=O)Oc1ccc2c(c1)C(=O)N1CCCN=C1N2C | 0.09 | 43.9 | 3.84 | 
COc1cccc(NC(=O)Oc2ccc3nc4n(c(=O)c3c2)CCCN4C)c1 | 0.33 | 12.6 | 5.46 | 
COc1cccc(NC(=O)Oc2ccc3nc4n(c(=O)c3c2)CCCN4CCCN2CCCCC2)c1 | 16.2 | 0.45 | 7.3 | IC50 (Cholinesterase; read-out: pIC50 (converted)): 25.7 µM
CCCCCCCNC(=O)Oc1ccc2nc3n(c(=O)c2c1)CCCN3CCCN1CCCCC1 | 322 | 0.0247 | 7.95 | inhibition [22]: tde; Activity (HT-22 [5]): Non-toxic; Activity (HT-22 [8]): inactive; inhibition [9]: inactive; K [20]: 1.3 nM; K [21]: 0.125 min⁻¹
O=c1c2cc(OCc3ccccc3)ccc2nc2n1CCCN2 | 0.19 |  | 19.3 | inhibition [1]: 20%; IC50 (Acetylcholinesterase; read-out: pIC50 (converted)): 19.1 µM
CCCCCCCNC(=O)Oc1ccc2nc3n(c(=O)c2c1)CCCN3Cc1ccccc1 | 3.51 | 25.3 | 88.8 | 
O=c1c2cc(OCc3ccccc3)ccc2nc2n1CCCN2Cc1ccccc1 |  |  |  | inhibition [13]: 10%; inhibition [12]: 20%
